In US11091546B2, “Optimized PNE-based chimeric receptor T cell switches and uses thereof” (The Scripps Research Institute, priority 2015, dated 2021):

Tests used:
RS4;11 cells = test: Inhibition of sCAR-T cell activity by free PNE peptide; format: cell-based; conditions: excess soluble peptide with LCNT switch
Text: The non-binding mutated version of the PNE (PNE-X; bar farthest to the right) was, again, used as a control. […] Alanine mutated free peptide (PepX) has no effect. Only the cognate free peptide epitope inhibits cytotoxicity (see FIGS. 26D-F). FIG. 26E-F show live cell imaging (Incucyte, Essen).
Specificity of sCAR-T cell activation is essential to switch-based control.
One of the great advantages of the sCART cell system is that the activity can be controlled. This can be achieved by either dose escalation of the switches or by stopping switch dosing. In the event that the cessation of switch dosing is not an acute enough response to halt sCART cell activity, immunological synapses are disrupted by the administration of free peptide.
Specificity of sCAR-T cell activation is a critical design consideration for switch-based control.

RS4;11 (CD19 positive) = format: cell-based, human
Description: Activity was assessed against NALM-6 (CD19^+), RS4;11 (CD19^+), or RPMI-8226 (CD19^−) (Table 2). The activity of the IgG (FcNull) switch was assessed against RS4;11 (CD19^+), or K562 (CD19^−) (Table 2). The activity of the C-terminal switch was assessed against RS4;11 (CD19^+), or K562 (CD19^−) (Table 4).
sCAR-T cells were co-cultured (96-well plate round bottom; 20-24h; 37° C.; 5% CO2) with RS4;11 (CD19^+) or K562 (CD19^−) cells at a ratio of 10 sCAR-T cells to 1 RS4;11/K562 cell (110,000 cells in total) in 100 uL of RPMI-1640 supplemented with 5% heat inactivated fetal calf serum (Thermo), 1% penicillin-streptomycin (Gibco), 1% L-Glutamine (Gibco), 1 mM sodium pyruvate (Gibco) and 1% non-essential amino acids (Gibco). After 24 hours, each plate was centrifuged at 400×g for 5 minutes at 4° C. To measure target cell lysis, the intracellular protein lactate dehydrogenase (LDH) was measured in the cytotoxicity assay supernatants from the co-cultured cells using the CytoTox 96® Non-Radioactive Cytotoxicity Assay kit (Promega). To measure the effector responses of the sCART cells in vitro, cytokine levels were measured in the cytotoxicity assay supernatants using the Cytometric Bead Array (CBA) Human Th1/Th2 Cytokine Kit II (BD). […]
The GCN4 CAR design was therefore modified to contain the CD8 hinge region (used in CART-19), which has an extracellular CAR domain of approximately 80 Å, and an IgG4 hinge with an extracellular CAR domain of approximately 15-30 Å. An additional construct was developed where a mutation was introduced into the IgG4 hinge that allows for spontaneous disulphide bridge formation between receptor molecules (IgG4m). […] Briefly, activated PBMC were transduced with lentivirus (SEQ ID: 1) containing the anti-PNE CAR construct (SEQ ID: 180) with the CD8 (SEQ ID: 68), IgG4 (SEQ ID: 70) and IgG4m (SEQ ID: 71) hinge domains.
Monovalent and bivalent combinations of these switches were expressed in mammalian protein expression systems (HEK293 or CHO cells) and purified using protein-G columns. Switches were used in cytotoxicity assays at a dose titration within the range of 10 nM to 0.0001 nM. The activity of each switch combination was tested in vitro in the General cytotoxicity assays where LDH release, cytokine production and sCART cell activation were compared (FIGS. 11A-11C).
CAR-T or target cells were incubated with 1 pM to […] of switch in FACS buffer (PBS, 1% FCS, 2 mM EDTA) for 30 minutes at 4° C. before being washed twice and then incubated with the PE-conjugated goat-anti-human kappa antibody (1:100). Cells were washed two times and analyzed using the Accuri flow cytometer (BD). CAR-T cell activity was determined using the CytoTox 96® Non-Radioactive Cytotoxicity Assay (Promega). CAR-T cells were incubated with target cells in the presence of switch for 20-24 hours at 37° C. in complete RPMI with 5% FCS. At the end of the assay, 30 μL of cell free supernatant was added to 30 μL of the LDH assay reagent in a 96-well plate and incubated for 30 minutes at room temperature in the dark; 30 μL of stop solution was added before the plate was read at OD495.

Nalm-6^Luc/GFP cells [1] = test: Nalm-6 Luc/GFP leukemia xenograft; format: in vivo; conditions: for tumor burden (IVIS): 0.5 mg/kg I.V. every other day for 10 days
Description: NSG mice were inoculated with CD19^+ Nalm-6^GFP/Luc cells. Six days later, 40×10^6 sCAR-T cells were delivered IV and switch dosing commenced every other day at 0.5 mg/kg for 10 days. Tumor burden was followed by luminescence after injection of luciferin and imaged on an in vivo imaging system (IVIS; PerkinElmer, Waltham, Mass., USA).
Asterisks indicate significance from LCNT Fab group. Data are represented as means±SEM, and statistical significance was calculated using the 2-way ANOVA with Bonferroni's post-test (B & E; shown for final time-point only) or by one-tailed student's t-test (C & F) where *=p<0.05, **=p<0.01 and ***=p<0.001.
NSG mice were inoculated with Nalm-6^GFP/Luc as described in FIG. 28. […] A fourth group consisted of two cohorts (n=3) of mice injected I.V. with sCAR-T cells without (−) LCNT Fab switch. LCNT Fab dosing in the indicated group was carried out daily at 0.5 mg/kg after the initial T cell infusion. Luminescence was measured at 6 h and subsequently every 24 h as indicated. Cohorts were sacrificed for analysis immediately following IVIS imaging. […] Gray lines indicate tumor burden in PBS and sCAR-T cell—LCNT Fab controls. […] Data are represented as means±SEM, and statistical significance was calculated using the one-tailed student's t-test (C & D) where *=p<0.05, **=p<0.01 and ***=p<0.001.
NSG mice were inoculated with Nalm6^GFP/Luc and six days later engrafted with short-dimeric sCAR-T cells as described in FIG. 29. […] Dosing was carried out for 15 d starting at day 6 (corresponding with sCAR-T cell infusion) as indicated by gray shading. Control groups CART-19 and PBS received no switch. The NS group received sCAR-T cells but no switch. Open circles denote the death of individual mice without evidence of tumor burden and may reflect GVHD. Triangles in PBS, NS and q.a.d. group indicate death due to increasing tumor burden. […] (19) indicates CART-19. […] (19) indicates CART-19. […] Triangles indicate the death of individual mice with significant tumor burden. The single mouse death in the 0.05 mg/kg group occurred while tumor burden was decreasing. […] Statistical significance was calculated using the one-tailed student's t-test (B, C & E) where *=p<0.05, **=p<0.01 and ***=p<0.001.
The different sCAR designs were tested in a xenograft model harboring luciferized NALM-6 (CD19+, CD80−, CD86−) cells. 1 mg/kg monovalent switch “A” was administered along with sCAR cells. […] Optimized hinge improved response. Short hinge CARs have faster clearance. Short, dimeric hinge CARs have improved persistence. Tumor burden was visualized with IVIS imaging. Experiments are repeated with a humanized scFv and bivalent switches.
Activity of the switchable CAR-T cell platform in vivo was evaluated via tumor regression in a Nalm-6^Luc/GFP leukemia xenograft model in immunodeficient NOD scid gamma (NSG) mice. These mice without treatment succumb to disease within 21 days. The impact of CAR hinge design on in vivo efficacy was determined using mice inoculated with Nalm-6^Luc/GFP, followed by I.V. injection of long, short, or short-dimeric sCAR-T cells 6 days later. The LCNT Fab was dosed I.V. (0.5 mg/kg) every other day for 10 days and tumor regression was followed by in vivo imaging (IVIS) of the luciferase signal from Nalm-6^Luc/GFP cells (FIG. 29A).
The effect of switch grafting position on the control of tumor burden was determined. As with the previous model, short-dimeric CAR-T cells were injected 6 days after tumor inoculation and mice were treated every other day (starting at day 6) with 0.5 mg/kg LCNT, HCNT, NTBV, LCC1, or HCCT Fab switches (FIG. 29D).
To determine the proliferation and localization of sCAR-T cell cytotoxicity during this time interval, mice were sorted into 5 cohorts per treatment regimen and analyzed at 8, 24, 48, 72, and 96 h after treatment with short-dimeric sCAR-T cells+LCNT Fab switch or with conventional CART-19 and no switch. […]

Nalm-6^Luc/GFP cells [2] = test: Nalm-6 Luc/GFP leukemia xenograft; format: in vivo
GCN4 epitope (7P14P) = GCN4 epitope (7P14P) (Saccharomyces cerevisiae, UniProt P03069); conditions: GCN4 epitope (7P14P) NYHLENEVARLKKL; read-out: dissociation constant (Kd); cited from earlier work
[3] = retreatment 0.5 mg/kg for 10 days

NYHLENEVARLKKL (CAR binding region - yeast transcription factor GCN4) [PNE]
effect of free peptide on sCAR-T cell activity (RS4;11 cells): fully inhibited

anti-CD19 Fab LCNT: FMC63 anti-CD19 Fab, GCN4 peptide on N-terminus of light chain (SEQ ID 36 & 29)
EC50 (RS4;11 (CD19 positive)): 0.9 pM | increase in potency of cytotoxicity (RS4;11 (CD19 positive)): 2.8 fold | increase in maximum target cell lysis (RS4;11 (CD19 positive); short-dimeric sCAR vs CD8-based long hinge): > 80% | serum IL-2, INFγ, TNFα at 24 h vs CART-19 (Nalm-6^Luc/GFP cells [1]; 0.05 mg/kg every day): significantly lower than CART-19 | duration of sustained tumor regression after dosing had stopped (Nalm-6^Luc/GFP cells [1]; 0.5 mg/kg every day or every other day for 15 days): > 100 days | T cell phenotype in peripheral blood (CD45RA, CD62L) (Nalm-6^Luc/GFP cells [1]; 0.05 and 0.5 mg/kg, vs […] group): significantly larger populations of CD45RA^−CD62L^+ central memory cells | T cell counts in peripheral blood (Nalm-6^Luc/GFP cells [1]; day 17, short-dimeric sCAR-T cells, 0.5 mg/kg every other day): greatest T cell expansion | tumor burden (IVIS) (Nalm-6^Luc/GFP cells [1]; long hinge (CD8) sCAR-T cells): minimal impact on disease | time to decrease tumor signal to levels equivalent to CART-19 (Nalm-6^Luc/GFP cells [1]; [3]): ≤ 5 days | tumor-free time after final dose of second dosing period (Nalm-6^Luc/GFP cells [1]; [3]): > 35 days | time of peak human IL-2 in peripheral blood (Nalm-6^Luc/GFP cells [1]; sCAR-T + daily 0.5 mg/kg LCNT Fab, or CART-19 without switch): 48 h | tumor burden (IVIS) (Nalm-6^Luc/GFP cells [1]; short (IgG4) sCAR-T cells): significant decrease in tumor burden | tumor burden (IVIS) (Nalm-6^Luc/GFP cells [1]; short-dimeric (IgG4m) sCAR-T cells): significant decrease in tumor burden | tumor burden (IVIS), switch graft position comparison (Nalm-6^Luc/GFP cells [1]; short-dimeric sCAR-T cells, 0.5 mg/kg every other day from day 6): greatest reduction in tumor burden | time to limit of luminescence detection (Nalm-6^Luc/GFP cells [1]; short-dimeric sCAR-T cells, daily 0.5 mg/kg): ≤ 96 h | day on which tumor burden reached the limit of detection (Nalm-6^Luc/GFP cells [2]; 0.05 mg/kg every day for 10 d): ≤ 16 days | day of tumor relapse (Nalm-6^Luc/GFP cells [2]; after 0.05 mg/kg every day for 10 d): 30 days

B1: 52SR4: high affinity anti-GCN4 (7P14P) scFv used as sCAR extracellular domain (protein)
scFv: DAVVTQESALTSSPGETVTLTCRSSTGAVTTSNYASWVQEKPDHLFTGLIGGTNNRAPGVPARFSGSLIGDKAALTITGAQTEDEAIYFCVLWYSDHWVFGGGTKLTVLGGGGGSGGGGSGGGGSGGGGSDVQLQESGPGLVAPSQSLSITCTVSGFLLTDYGVNWVRQSPGKGLEWLGVIWGDGITDYNSALKSRLSVTKDNSKSQVFLKMNSLQSGDSARYYCVTGLFDYWGQGTTLTVSS
Kd (GCN4 epitope (7P14P)): 5.2 pM
